Reference: US9096624B2 (OSI Pharmaceuticals, LLC, priority 2009, dated 2015)

Tests used:
[1] = biological target: T1, FAK (Homo sapiens, UniProt Q05397); assay: biochemical
[2] = biological target: T1, FAK; assay: Cell-based capture ELISA for inhibition of FAK autophosphorylation [pY397] in MiaPaCa2 cells; conditions: MIA-PaCa2 cells, + 50% mouse plasma (Table 3); read-out: Mean FAK Cell Mechanistic IC50 + 50% mP MIA-PaCa2
Procedure: Cell-Based Assays for Inhibition of FAK Autophosphorylation: MiaPaCa2 and U87MG
ELISA kit from Invitrogen (KHO0441).
Reagents Provided in Biosource FAK [pY397]
The cells were then suspended in cell assay medium.

T1 sequence (Q05397 whole entry): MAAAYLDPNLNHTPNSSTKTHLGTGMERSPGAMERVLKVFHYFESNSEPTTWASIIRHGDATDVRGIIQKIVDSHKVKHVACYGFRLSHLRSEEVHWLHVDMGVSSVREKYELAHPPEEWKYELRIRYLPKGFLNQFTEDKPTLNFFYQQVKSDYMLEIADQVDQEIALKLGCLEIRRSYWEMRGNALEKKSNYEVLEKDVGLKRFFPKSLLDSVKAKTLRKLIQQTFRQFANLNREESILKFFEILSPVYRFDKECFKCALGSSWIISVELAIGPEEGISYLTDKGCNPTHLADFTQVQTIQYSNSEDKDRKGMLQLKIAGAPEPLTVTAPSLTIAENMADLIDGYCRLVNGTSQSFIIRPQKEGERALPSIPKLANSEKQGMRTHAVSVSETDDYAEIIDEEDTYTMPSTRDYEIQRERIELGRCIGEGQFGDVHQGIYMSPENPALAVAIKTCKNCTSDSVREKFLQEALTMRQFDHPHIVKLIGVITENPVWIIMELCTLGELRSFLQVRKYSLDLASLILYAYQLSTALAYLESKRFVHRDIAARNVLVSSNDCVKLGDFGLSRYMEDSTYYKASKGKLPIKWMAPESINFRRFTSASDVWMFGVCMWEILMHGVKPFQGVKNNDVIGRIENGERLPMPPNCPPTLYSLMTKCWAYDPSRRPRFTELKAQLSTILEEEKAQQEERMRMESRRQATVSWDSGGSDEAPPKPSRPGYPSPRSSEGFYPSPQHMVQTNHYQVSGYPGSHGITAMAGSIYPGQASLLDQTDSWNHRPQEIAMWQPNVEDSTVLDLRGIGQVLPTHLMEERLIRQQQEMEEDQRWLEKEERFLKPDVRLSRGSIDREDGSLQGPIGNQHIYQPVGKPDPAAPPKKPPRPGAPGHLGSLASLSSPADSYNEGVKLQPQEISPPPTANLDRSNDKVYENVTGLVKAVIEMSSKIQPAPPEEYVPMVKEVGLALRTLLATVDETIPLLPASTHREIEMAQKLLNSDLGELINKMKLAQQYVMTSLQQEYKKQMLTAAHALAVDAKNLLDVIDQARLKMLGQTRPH

SMILES | IC50 [1] | IC50 [2]
CCOP(=O)(Cc1ccc(Nc2ncc(C(F)(F)F)c(Nc3ccc(-c4cnn(C5CC(O)C5)c4)c4c3C(=O)N(C)C4)n2)c(OC)c1)OCC (stereo not drawn) [Example 100, Diethyl (4-{[4-({7-[1-(3-hydroxycyclobutyl)-1H-pyrazol-4-yl]-2-methyl-3-oxo-2,3-dihydro-1H-isoindol-4-yl}amino)-5-(trifluoromethyl)pyrimidin-2-yl]amino}-3-methoxybenzyl)phosphonate] | < 1000 nM | < 1000 nM
CCOP(=O)(Cc1ccc(Nc2ncc(C(F)(F)F)c(Nc3ccc(-c4cnn(C[C@H](O)CO)c4)c4c3C(=O)N(C)C4)n2)cc1)OCC [Example 101, Diethyl [4-({4-[(7-{1-[(2S)-2,3-dihydroxypropyl]-1H-pyrazol-4-yl}-2-methyl-3-oxo-2,3-dihydro-1H-isoindol-4-yl)amino]-5-(trifluoromethyl)pyrimidin-2-yl}amino)benzyl]phosphonate] | < 1000 nM | < 1000 nM
CCOP(=O)(Cc1ccc(Nc2ncc(C(F)(F)F)c(Nc3ccc(F)cc3C(=O)NC)n2)c(OC)c1)OCC [Example 102, Diethyl (4-{[4-{[4-fluoro-2-(methylcarbamoyl)phenyl]amino}-5-(trifluoromethyl)pyrimidin-2-yl]amino}-3-methoxybenzyl)phosphonate] | < 1000 nM | < 1000 nM
CCOP(=O)(Cc1ccc(Nc2ncc(C(F)(F)F)c(Nc3cc(F)ccc3C(=O)NC)n2)c(OC)c1)OCC [Example 103, Diethyl (4-{[4-{[5-fluoro-2-(methylcarbamoyl)phenyl]amino}-5-(trifluoromethyl)pyrimidin-2-yl]amino}-3-methoxybenzyl)phosphonate] | < 1000 nM | < 1000 nM
CCOP(=O)(Cc1ccc(Nc2ncc(C(F)(F)F)c(Nc3ccccc3C(=O)NC)n2)c(Cl)c1)OCC [Example 104, Diethyl (3-chloro-4-{[4-{[2-(methylcarbamoyl)phenyl]amino}-5-(trifluoromethyl)pyrimidin-2-yl]amino}benzyl)phosphonate] | < 1000 nM | < 1000 nM
CCOP(=O)(Cc1ccc(Nc2ncc(C(F)(F)F)c(Nc3cccc4c3C(=O)N(C)C4=O)n2)c(OC)c1)OCC [Example 105, Diethyl [3-methoxy-4-({4-[(2-methyl-1,3-dioxo-2,3-dihydro-1H-isoindol-4-yl)amino]-5-(trifluoromethyl)pyrimidin-2-yl}amino)benzyl]phosphonate] | < 1000 nM | 1000 to 10000 nM
CCOP(=O)(Cc1ccc(Nc2ncc(C(F)(F)F)c(Nc3ccc(Br)cc3C(=O)NC)n2)c(OC)c1)OCC [Example 107, Diethyl (4-{[4-{[4-bromo-2-(methylcarbamoyl)phenyl]amino}-5-(trifluoromethyl)pyrimidin-2-yl]amino}-3-methoxybenzyl)phosphonate] | < 1000 nM | < 1000 nM
CCOP(=O)(Cc1ccc(Nc2ncc(C(F)(F)F)c(Nc3ccc(CN4CCCC4)c4c3C(=O)N(C)C4)n2)cc1)OCC [Example 109, Diethyl (4-{[4-{[2-methyl-3-oxo-7-(pyrrolidin-1-ylmethyl)-2,3-dihydro-1H-isoindol-4-yl]amino}-5-(trifluoromethyl)pyrimidin-2-yl]amino}benzyl)phosphonate] | < 1000 nM | 1000 to 10000 nM
CCOP(=O)(Cc1ccc(Nc2ncc(C(F)(F)F)c(Nc3ccc(CN4CCCC4)c4c3C(=O)N(C)C4)n2)c(OC)c1)OCC [Example 110, Diethyl (3-methoxy-4-{[4-{[2-methyl-3-oxo-7-(pyrrolidin-1-ylmethyl)-2,3-dihydro-1H-isoindol-4-yl]amino}-5-(trifluoromethyl)pyrimidin-2-yl]amino}benzyl)phosphonate] | < 1000 nM | < 1000 nM
CNC(=O)c1ccccc1Nc1nc(Nc2ccc(CP(=O)(OCCO)OCCO)cc2OC)ncc1C(F)(F)F [Example 113, Bis(2-hydroxyethyl)(3-methoxy-4-{[4-{[2-(methylcarbamoyl)phenyl]amino}-5-(trifluoromethyl)pyrimidin-2-yl]amino}benzyl)phosphonate] | < 1000 nM | < 1000 nM
CNC(=O)c1ccccc1Nc1nc(Nc2ccc(CP(=O)(OCC(F)(F)F)OCC(F)(F)F)cc2OC)ncc1C(F)(F)F [Example 114, Bis(2,2,2-trifluoroethyl)(3-methoxy-4-{[4-{[2-(methylcarbamoyl)phenyl]amino}-5-(trifluoromethyl)pyrimidin-2-yl]amino}benzyl)phosphonate] | < 1000 nM | < 1000 nM
CCOP(=O)(OCC)C(OCC(F)(F)F)c1ccc(Nc2ncc(C(F)(F)F)c(Nc3ccccc3C(=O)NC)n2)cc1 (stereo not drawn) [Example 115, Diethyl [(4-{[4-{[2-(methylcarbamoyl)phenyl]amino}-5-(trifluoromethyl)pyrimidin-2-yl]amino}phenyl)(2,2,2-trifluoroethoxy)methyl]phosphonate] | < 1000 nM | 1000 to 10000 nM
CCOP(=O)(Cc1ccc(Nc2ncc(C(F)(F)F)c(Nc3ccc(C(=O)N4CCCC4)c4c3C(=O)N(C)C4)n2)cc1)OCC [Example 116, Diethyl (4-{[4-{[2-methyl-3-oxo-7-(pyrrolidin-1-ylcarbonyl)-2,3-dihydro-1H-isoindol-4-yl]amino}-5-(trifluoromethyl)pyrimidin-2-yl]amino}benzyl)phosphonate] | < 1000 nM | 1000 to 10000 nM
CCOP(=O)(Cc1ccc(Nc2ncc(C(F)(F)F)c(Nc3ccc(C(=O)N4CCCC4)c4c3C(=O)N(C)C4)n2)c(OC)c1)OCC [Example 117, Diethyl (3-methoxy-4-{[4-{[2-methyl-3-oxo-7-(pyrrolidin-1-ylcarbonyl)-2,3-dihydro-1H-isoindol-4-yl]amino}-5-(trifluoromethyl)pyrimidin-2-yl]amino}benzyl)phosphonate] | < 1000 nM | < 1000 nM
CCOP(=O)(Cc1ccc(Nc2ncc(C(F)(F)F)c(Nc3ccc(C(=O)OC)c4c3C(=O)N(C)C4)n2)c(OC)c1)OCC [Example 119, Methyl 7-{[2-({4-[(diethoxyphosphoryl)methyl]-2-methoxyphenyl}amino)-5-(trifluoromethyl)pyrimidin-4-yl]amino}-2-methyl-1-oxo-2,3-dihydro-1H-isoindole-4-carboxylate] | < 1000 nM | < 1000 nM
COc1cc(CP(=O)(OCC(F)(F)F)OCC(F)(F)F)ccc1Nc1ncc(C(F)(F)F)c(Nc2cccc3c2C(=O)N(C)C3)n1 [Example 124, Bis(2,2,2-trifluoroethyl) [3-methoxy-4-({4-[(2-methyl-3-oxo-2,3-dihydro-1H-isoindol-4-yl)amino]-5-(trifluoromethyl)pyrimidin-2-yl}amino)benzyl]phosphonate] | < 1000 nM | < 1000 nM
CCOP(=O)(Cc1ccc(Nc2ncc(C(F)(F)F)c(Nc3ccc(-c4cnn(C)c4)cc3C(=O)NC)n2)cc1)OCC [Example 125, Diethyl (4-{[4-{[2-(methylcarbamoyl)-4-(1-methyl-1H-pyrazol-4-yl)phenyl]amino}-5-(trifluoromethyl)pyrimidin-2-yl]amino}benzyl)phosphonate] | < 1000 nM | < 1000 nM
CCOP(=O)(Cc1ccc(Nc2ncc(C(F)(F)F)c(Nc3ccc(C(=O)O)c4c3C(=O)N(C)C4)n2)cc1)OCC [Example 128, 7-{[2-({4-[(Diethoxyphosphoryl)methyl]phenyl}amino)-5-(trifluoromethyl)pyrimidin-4-yl]amino}-2-methyl-1-oxo-2,3-dihydro-1H-isoindole-4-carboxylic acid] | < 1000 nM | 1000 to 10000 nM
